Consider 14 molecules from patent US4886806A, “Flavone-3-carboxylic acids compounds and pharmaceutical compositions containing them” (Kali-Chemie Pharma GmbH, priority 1987, dated 1989).

Where two headings read alike, the source gives them in different places.

For one experiment, the system named is Lipoxygenase. Briefly: LTB4 synthesis and inhibition test (lipoxygenase inhibition in vitro) in polymorphonuclear leucocytes. Format: cell-based. Conditions: PMNL; for inhibition at 100 µM: Homo sapiens, read-out: Lipoxygenase inhib. in vitro, % inhibition of the LTB4 synthesis at 10^-4 Mol/l. The method, then:
2. In order to investigate the lipoxygenase-inhibiting properties, the inhibiting effect of the substances on the biosynthesis of leucotriene B4 (=LTB4) from arachidonic acid by activated inflamed cells was determined in vitro. Leucotriene B4, a dihydroxy fatty acid which plays an important role not only in the inflammation but also in allergic reactions was oxidatively formed, starting from arachidonic acid, by oxidation through the action of the enzyme lipoxygenase.
LTB4 Synthesis and Inhibition Test.
The combined extracts were evaporated under vacuum to dryness and the residue was taken up in 0.5 ml 30% aqueous methanol and was analyzed with the aid of high pressure liquid chromatography with phase reversal (=reversed phase-HPLC). The stationary phase (=separating medium) consisted of silica gel containing octadecyl groups chemically bound thereto (=RSIL C18 HP; produced by Autech, Darfield, Ill.). The solvent mixture is methanol:water:acetic acid (67:33:0.1; v/v/v), which had been adjusted to a pH value of 6.2 with NH3 /H2 O. The flow velocity was 1 ml/min. […] The LTB4 signals were compared with those of the control (cell incubation with solvent) and reported as percent inhibition of LTB4 synthesis compared with the controls.

In experiment [1] the test system is oxygen radical-forming activity of activated peritoneal exudate cells (PEC) of mice. The experiment in a line: Peak chemiluminescence (CL) test: inhibition of oxygen radical liberation from activated peritoneal exudate cells. Format: cell-based. The following applies: 10^-4 Mol substance/l, added at peak of cell activity; for inhibition at 100 µM (stock): Mus musculus, read-out: Inhibition in vitro of the oxygen radical liberation, Chemiluminescence Test % inhibition, Pk. CL. Here is the method: 1. To determine the inhibiting effect on the oxygen radical-forming activity of inflamed cells, the in vitro inhibition of the release of oxygen radicals from activated peritoneal exudate cells (=PEC) of mice was determined in the chemiluminescence (CL) test according to the method of Mueller-Peddinghaus (Int. J. Immunopharmac. 6, 455-466 (1984)). […] The intensity of the chemiluminescence is a measurement of the oxygen radical content in the suspension and thus the degree of activity of the inflamed cells. In this, three functionally different parameters are detected, the spontaneous CL, the induced CL and the peak CL. The spontaneous CL and the induced CL on the one hand and the peak CL on the other hand differ from each other because in the first two parameters the test substances are in contact with the cells for a 30 minute preincubation period before the inflammation irritant is added, whereas with the peak CL the cells are first stimulated, and the test substance is added at the peak of their activity. The measurement of the spontaneous CL thus detects the influence of the test substance on the relative rest activity of inflamed cells, the induced CL represents the effect of the test substances on the activatability of the cells and the inhibition of the peak CL indicates the effect of the test substances on the maximum activity of the inflamed cells. 1.1 Production of PEC suspension used in the test. In order to induce the PEC formation, female mice of 20-25 g body weight were each injected i.p. with 2 ml of a 3% solution of thioglycollate in sterile isotonic sodium chloride solution. Twenty four hours after the thioglycollate injection the cells, which predominantly consisted of polymorphonuclear leucocytes, were recovered by washing out of the abdominal cavity and washed twice. As cell culture medium there was added a commercially available solution under the designation RPMI 1640 (pH 7.2) (produced by Flow Laboratories, […], Germany), which contains 10% fetal calf serum (FCS, produced by Seromed GmbH, Munich, Germany) 18 μmol/l sodium bicarbonate and 2 μmol/l L-glutamine. The cell pellets of four animals each time were resuspended in cell culture medium, collected together and the suspension was made up to 2×10^6 cells per ml with cell culture medium. The cell suspensions were kept under ice cooling until their use the same day. 1.2 Production of the complement opsonized zymosan (=ZyC3 b) suspension used for activation. 200 mg zymosan (glycoprotein mixture isolated from the cell walls of brewer's yeast, Sacchomyces […], produced by Sigma Chemical Co., Munich, Germany) were suspended in 10 ml phosphate buffer solution according to Dulbecco (produced by Flow Laboratories, […], Germany), well stirred and heated for thirty minutes in a water bath to 100° C. After cooling, it was centrifuged for five minutes at 4° C. and at 600 ×g and the supernatant was discarded. The sediment was resuspended in 50 ml human serum and incubated for thirty minutes at 37° C. in a shaking water bath. Then it was centrifuged for five minutes at 600 ×g and 420 C., the supernatant decanted and the sediment washed with phosphate buffer solution. The working suspension of 8×10^-3 g ZyC3 b/ml was produced from the sediment by dilution with phosphate buffer solution (Mueller-Peddinghaus et al., Zbl. Vet. Med. B. 30, 559-575). 1.3 Chemiluminescence (CL) measurement (Peak-CL). The PEC suspension was divided into samples of 100 μl each, placed in test tubes, and these were incubated for ten minutes at a temperature of 3720 C. in a measurement device (Chemiluminescence analyzer, Laboratorium Prof. Berthold, Wildbad, Germany). Then in order to amplify the chemiluminescence, 100 μl lucigenin solution was added (final concentration 1.54×10^-4 mol/l) and incubated for 16 more minutes. The cells were then activated by the addition of 100 μl of the ZyC3 b suspension produced as described in section 1.2 plus 100 μl phosphate buffer solution. […]

Where [2] appears, read: 10^-4 Mol/l, Ca-ionophore A 23187, arachidonic acid.

Turning to `Cl.O=C(c1c(-c2ccccc2)oc2ccccc2c1=O)N1CCN(c2ccccn2)CC1` [Example 1c, 3-{[4-(2-Pyridyl)-piperazin-1-yl]-carbonyl}flavone hydrochloride], the inhibition at 100 µM in the experiment on Lipoxygenase (setting [2]) turned out to be 52%. Also, the inhibition at 100 µM (stock) in experiment [1] was 47%.

On to `O.O=C(O)C(O)C(O)C(=O)O.O=C(c1c(-c2ccccc2)oc2ccccc2c1=O)N1CCN(Cc2ccccc2)CC1` [Example 2b, 3-[(4-benzyl-piperazin-1-yl)-carbonyl]flavone tartrate monohydrate], for which the inhibition at 100 µM with Lipoxygenase was 92%. In experiment [1], the inhibition at 100 µM (stock) is 58%.

Regarding `CCN(CC)CCCOC(=O)c1c(-c2ccccc2)oc2ccccc2c1=O.Cl` [Example 3b, 3-[3-(diethylamino)propoxycarbonyl]flavone hydrochloride], the inhibition at 100 µM with Lipoxygenase (setting [2]) came to 8%. Further, in experiment [1], the inhibition at 100 µM (stock) was 61%.

As to `O=C(NCCCCN1CCN(c2ccccn2)CC1)c1c(-c2ccccc2)oc2ccccc2c1=O` [Example 4e, 3-{4-[4-(2-pyridyl)-piperazin-1-yl]-butylaminocarbonyl}flavone], the inhibition at 100 µM in the experiment on Lipoxygenase (setting [2]) came to 10%. The inhibition at 100 µM (stock) in experiment [1] came to 76%.

For the molecule `COc1cc(-c2oc3ccccc3c(=O)c2C(=O)N2CCN(c3ccccn3)CC2)cc(OC)c1OC` [Example 7a, 3',4',5'-trimethoxy-3-{[4-(2-pyridyl)-piperazin-1-yl]-carbonyl}flavone], in the experiment on Lipoxygenase (setting [2]), the inhibition at 100 µM worked out at 38%. In addition, in experiment [1], the “Inhibition in vitro of the oxygen radical liberation, Chemiluminescence Test % inhibition, Pk. CL” value is given as 68%.

Regarding `COc1cc(-c2oc3ccccc3c(=O)c2C(=O)N2CCN(c3ccccn3)CC2)cc(OC)c1OC` [Example 7b, 3',4',5'-trimethoxy-3-{[4-(2-pyridyl)-piperazin-1-yl]-carbonyl}flavone], in the experiment with Lipoxygenase (setting [2]), the “Lipoxygenase inhib. in vitro, % inhibition of the LTB4 synthesis at 10^-4 Mol/l” value is 42%. Also, the “Inhibition in vitro of the oxygen radical liberation, Chemiluminescence Test % inhibition, Pk. CL” value in experiment [1] stood at 44%.

In the case of `O.O.O=C(O)C(O)C(O)C(=O)O.O=C(c1c(-c2cc(O)c(O)c(O)c2)oc2ccccc2c1=O)N1CCN(Cc2ccccc2)CC1` [Example 14e, 3',4',5'-trihydroxy-3-[(4-benzylpiperazin-1-yl)carbonyl] -flavone tartrate dihydrate], the inhibition at 100 µM in the experiment on Lipoxygenase amounted to 86%. Besides, the inhibition at 100 µM (stock) in experiment [1] amounted to 99%.

Turning to `CN1CCN(CCCCNC(=O)c2c(-c3ccccc3)oc3ccccc3c2=O)CC1` [Example 24], the inhibition at 100 µM with Lipoxygenase (setting [2]) was found to be 46%. Also, in experiment [1], the inhibition at 100 µM (stock) came to 1%.

As for `O=C(c1c(-c2cccc(O)c2)oc2ccccc2c1=O)N1CCN(Cc2ccccc2)CC1` [Example 30], the inhibition at 100 µM with Lipoxygenase (setting [2]) was found to be 44%. The inhibition at 100 µM (stock) in experiment [1] came to 85%.

For the molecule `COc1ccc(-c2oc3ccccc3c(=O)c2C(=O)N2CCN(c3ccccn3)CC2)cc1OC` [Example 32b], in the experiment with Lipoxygenase (setting [2]), the inhibition at 100 µM was 25%. The inhibition at 100 µM (stock) in experiment [1] turned out to be 56%.

As to `COc1cc(OC)c2c(=O)c(C(=O)N3CCN(c4ccccn4)CC3)c(-c3ccccc3)oc2c1` [Example 34], the inhibition at 100 µM in the experiment with Lipoxygenase (setting [2]) stood at 25%. For the same molecule, the inhibition at 100 µM (stock) in experiment [1] turned out to be 25%.

On to `CC(=O)Oc1cc(-c2oc3ccccc3c(=O)c2C(=O)N2CCN(c3ccccn3)CC2)cc(OC(C)=O)c1OC(C)=O` [Example 39b], for which the inhibition at 100 µM with Lipoxygenase (setting [2]) came out at 93%. For the same molecule, in experiment [1], the inhibition at 100 µM (stock) was 99%.

As to `O=C(NCCc1ccccn1)c1c(-c2cc(O)c(O)c(O)c2)oc2ccccc2c1=O` [Example 53], the inhibition at 100 µM in the experiment with Lipoxygenase (setting [2]) came to 77%. The inhibition at 100 µM (stock) in experiment [1] was found to be 77%.

For the molecule `COc1cc(-c2oc3ccccc3c(=O)c2C(=O)NCCCCN2CCN(c3ncccn3)CC2)cc(OC)c1OC` [Example 54], the inhibition at 100 µM in the experiment with Lipoxygenase (setting [2]) was 44%. Moreover, the inhibition at 100 µM (stock) in experiment [1] came to 72%.
